Columns and labels:
[1] = test system: splenocytes from CD1 mice; assay: Splenic cell proliferation assay (anti-IgM stimulated, Cell Titer-Glo); assay type: cell-based; settings: Splenocyte; mouse splenocytes, 2.5 ug/ml anti-IgM F(ab')2 for 72 h; read-out: Inhibition of splenic cell proliferation, EC50
Description: Splenic Cell Proliferation Assay
Proliferation of splenocytes in response to anti-IgM can be blocked by inhibition of Btk. Splenocytes were obtained from 6 week old male CD1 mice (Charles River Laboratories Inc.). Mouse spleens were manually disrupted in PBS and filtered using a 70 um cell strainer followed by ammonium chloride red blood cell lysis. Cells were washed, resuspended in Splenocyte Medium (HyClone RPMI supplemented with 10% heat-inactivated FBS, 0.5× non-essential amino acids, 10 mM HEPES, 50 uM beta mercaptoethanol) and incubated at 37° C., 5% CO2 for 2 h to remove adherent cells. Suspension cells were seeded in 96 well plates at 50,000 cells per well and incubated at 37° C., 5% CO2 for 1 h. Splenocytes were pre-treated in triplicate with 10,000 nM curves of Formula I compounds for 1 h, followed by stimulation of cell proliferation with 2.5 ug/ml anti-IgM F(ab′)2 (Jackson ImmunoResearch) for 72 h. Cell proliferation was measured by Cell Titer-Glo Luminescent Assay (Promega). EC50 values (50% proliferation in the presence of compound as compared to vehicle treated controls) were calculated from dose response compound curves using GraphPad Prism Software.

[2] = target: T1, histidine tagged recombinant human full-length Bruton Agammaglobulinemia Tyrosine Kinase (Btk) (Homo sapiens, UniProt Q06187); assay: Btk kinase inhibition assay, Method A (fluorescence polarization, KinEASE FP Fluorescein Green); assay type: biochemical; settings: 10 μM ATP, 250 μM substrate, 60 minutes, Ki by Cheng-Prusoff from IC50, read-out: Inhibition of Btk, EC50 (nM) (legend: Ki)
T1 construct: histidine tagged recombinant human full-length Bruton Agammaglobulinemia Tyrosine Kinase (Btk); His tag
T1 sequence (Q06187 whole entry): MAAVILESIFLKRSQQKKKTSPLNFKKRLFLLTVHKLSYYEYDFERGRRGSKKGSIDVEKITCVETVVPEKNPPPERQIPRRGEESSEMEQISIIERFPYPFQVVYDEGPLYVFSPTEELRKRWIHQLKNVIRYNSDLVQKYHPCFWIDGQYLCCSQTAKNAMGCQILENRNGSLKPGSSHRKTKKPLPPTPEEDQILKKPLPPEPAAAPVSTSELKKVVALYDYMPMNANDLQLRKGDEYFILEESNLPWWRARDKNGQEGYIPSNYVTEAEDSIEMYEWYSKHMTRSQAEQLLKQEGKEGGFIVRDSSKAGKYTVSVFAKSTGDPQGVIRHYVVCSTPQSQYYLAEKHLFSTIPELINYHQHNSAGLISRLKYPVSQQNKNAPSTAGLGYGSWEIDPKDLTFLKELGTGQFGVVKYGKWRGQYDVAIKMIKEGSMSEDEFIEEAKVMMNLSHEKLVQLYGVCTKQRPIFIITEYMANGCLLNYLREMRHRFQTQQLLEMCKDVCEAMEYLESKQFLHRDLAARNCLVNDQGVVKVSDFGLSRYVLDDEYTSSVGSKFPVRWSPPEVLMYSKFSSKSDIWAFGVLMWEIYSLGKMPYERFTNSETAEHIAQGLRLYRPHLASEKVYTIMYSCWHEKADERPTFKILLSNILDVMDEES
Description: Fluorescence polarization-based kinase assays were performed in 384 well-plate format using histidine tagged recombinant human full-length Bruton Agammaglobulinemia Tyrosine Kinase (Btk) and a modified protocol of the KinEASE™ FP Fluorescein Green Assay supplied from Millipore®. Kinase reaction were performed at room temperature for 60 minutes in presence of 250 μM substrate, 10 μM ATP and variable test article concentrations. The reaction was stopped with EDTA/kinease detection reagents. Phosphorylation of the substrate peptide was detected by fluorescence polarization measured with a Tecan 500 instrument. From the dose-response curve obtained, the IC50 was calculated using Graph Pad Prisms® using a non linear fit curve. The Km for ATP on each enzyme was experimentally determined and the Ki values calculated using the Cheng-Prusoff equation (see: Cheng Y, Prusoff W. H. (1973) Relationship between the inhibition constant (K1) and the concentration of inhibitor which causes 50% inhibition (I50) of an enzymatic reaction”. Biochem Pharmacol 22 (23): 3099-108). ki values are reported in Tables 2a and 2b: […]

human BTK kinase (hBTK) = target: T2, human BTK kinase (hBTK) (Homo sapiens, UniProt Q06187); assay: Btk kinase inhibition assay, Method B (KinaseProfiler radiometric protein kinase assay, Eurofins); assay type: biochemical; settings: 40 minutes, 250 μM substrate
T2 construct: purchased Eurofins Pharma Discovery Services UK Limited (assay service)
T2 sequence (Q06187 whole entry): as above
Description: In vitro potency of selected compound was defined against human BTK kinase (hBTK) using KinaseProfiler radiometric protein kinase assays performed at Eurofins Pharma Discovery Services UK Limited.
hBTK kinase is diluted in buffer and all compounds were prepared to 50× final assay concentration in 100% DMSO. This working stock of the compound was added to the assay well as the first component in the reaction, followed by the remaining components as detailed in the assay protocol listed above. The reaction was initiated by the addition of the MgATP mix. The kinase reaction was performed at room temperature for 40 minutes in presence of 250 μM substrate, 10 mM MgAcetate, [γ-33P-ATP] (specific activity approx. 500 cpm/pmol, concentration as required) and variable test article concentrations. The ATP concentrations in the assays were with 15 μM of the apparent. The reaction was stopped by the addition of 3% phosphoric acid solution. 10 μL of the reaction is then spotted onto a P30 filtermat and washed three times for 5 minutes in 75 mM phosphoric acid and once in methanol prior to drying and scintillation counting. In addition positive control wells contain all components of the reaction, except the compound of interest; however, DMSO (at a final concentration of 2%) were included in these wells to control for solvent effects as well as blank wells contain all components of the reaction, with a reference inhibitor replacing the compound of interest. This abolishes kinase activity and establishes the base-line (0% kinase activity remaining). The potency of each compound was reported by estimating the EC50.

Compound: Cc1ncc(COc2cc(F)cc(Oc3ccc(-c4cn(C(C)C)c5ncnc(N)c45)cc3)c2)s1 [Compound 1]
- EC50 [1]: < 0.1 µM
- Ki [2]: < 100 nM

Compound: Cc1ccc(COc2cc(F)cc(Oc3ccc(-c4cn(C(C)C)c5ncnc(N)c45)cc3)c2)cn1 [Compound 2]
- EC50 [1]: < 0.1 µM
- Ki [2]: < 100 nM

Compound: Cc1ncc(COc2cc(F)cc(Oc3ccc(-c4cn(C(C)C)c5ncnc(N)c45)cc3)c2)cn1 [Compound 3]
- EC50 [1]: < 0.1 µM
- Ki [2]: < 100 nM

Compound: Cc1ccc(COc2cc(F)cc(Oc3ccc(-c4cn(C5CCOCC5)c5ncnc(N)c45)cc3)c2)cn1 [Compound 4]
- EC50 [1]: < 0.1 µM
- Ki [2]: < 100 nM

Compound: Cc1ncc(COc2cc(F)cc(Oc3ccc(-c4cn(C5CCOCC5)c5ncnc(N)c45)cc3)c2)s1 [Compound 5]
- EC50 [1]: < 0.1 µM
- Ki [2]: < 100 nM

Compound: Cc1ncc(COc2cc(F)cc(Oc3ccc(-c4cn(C5CCOCC5)c5ncnc(N)c45)cc3)c2)cn1 [Compound 6]
- EC50 [1]: < 0.1 µM
- Ki [2]: < 100 nM

Compound: Cc1ncc(COc2cc(F)cc(Oc3ccc(-c4cn(C[C@@H]5CCCN5)c5ncnc(N)c45)cc3)c2)s1 [Compound 7]
- EC50 [1]: 0.1 to 1 µM
- Ki [2]: < 100 nM

Compound: Cc1ncc(COc2cc(F)cc(Oc3ccc(-c4cn(C[C@@H]5CCCN5)c5ncnc(N)c45)cc3)c2)cn1 [Compound 8]
- EC50 [1]: 0.1 to 1 µM
- Ki [2]: < 100 nM

Compound: CC(C)n1cc(-c2ccc(Oc3cc(F)cc(OCc4ccccc4)c3)cc2)c2c(N)ncnc21 [Compound 9]
- EC50 [1]: 0.1 to 1 µM
- Ki [2]: < 100 nM

Compound: Cc1ncc(COc2cc(F)cc(Oc3ccc(-c4cn(C[C@H]5CCCN5)c5ncnc(N)c45)cc3)c2)cn1 [Compound 10]
- EC50 [1]: 0.1 to 1 µM
- Ki [2]: 100 to 1000 nM

Compound: Cc1ncc(COc2ccc(F)c(Oc3ccc(-c4cn(C(C)C)c5ncnc(N)c45)cc3)c2)cn1 [Compound 11]
- EC50 [1]: 0.1 to 1 µM
- Ki [2]: < 100 nM

Compound: CCCc1ncc(COc2cc(F)cc(Oc3ccc(-c4cn(C(C)C)c5ncnc(N)c45)cc3)c2)cn1 [Compound 12]
- EC50 [1]: 0.1 to 1 µM
- Ki [2]: < 100 nM

Compound: CC(C)c1ncc(COc2cc(F)cc(Oc3ccc(-c4cn(C(C)C)c5ncnc(N)c45)cc3)c2)cn1 [Compound 13]
- EC50 [1]: 0.1 to 1 µM
- Ki [2]: < 100 nM

Compound: CC(C)n1cc(-c2ccc(Oc3cc(F)cc(OCc4cnc(C5CC5)nc4)c3)cc2)c2c(N)ncnc21 [Compound 14]
- EC50 [1]: 0.1 to 1 µM
- Ki [2]: < 100 nM

Compound: Cc1ncc(COc2cc(Oc3ccc(-c4cn(C(C)C)c5ncnc(N)c45)cc3)ccc2F)cn1 [Compound 15]
- EC50 [1]: 0.1 to 1 µM
- Ki [2]: 100 to 1000 nM

Compound: CC(C)n1cc(-c2ccc(Oc3cc(F)cc(OCc4cncnc4)c3)cc2)c2c(N)ncnc21 [Compound 17]
- EC50 [1]: < 0.1 µM
- Ki [2]: < 100 nM

Compound: Cc1ncc(COc2cc(F)cc(Oc3ccc(-c4cn([C@H]5C[C@@](C)(O)C5)c5ncnc(N)c45)cc3)c2)cn1 [Compound 18]
- EC50 [1]: < 0.1 µM
- Ki [2]: < 100 nM

Compound: Cc1ncc(COc2cccc(Oc3ccc(-c4cn(C(C)C)c5ncnc(N)c45)cc3)c2F)cn1 [Compound 19]
- EC50 [1]: < 0.1 µM
- EC50 (human BTK kinase (hBTK)): < 0.1 µM

Compound: CC(C)n1cc(-c2ccc(Oc3cc(F)cc(OCc4cnc(CO)nc4)c3)cc2)c2c(N)ncnc21 [Compound 20]
- EC50 [1]: 0.1 to 1 µM
- EC50 (human BTK kinase (hBTK)): < 0.1 µM

Compound: CC(C)n1cc(-c2ccc(Oc3cc(F)cc(OCc4ccc(CO)nc4)c3)cc2)c2c(N)ncnc21 [Compound 21]
- EC50 [1]: < 0.1 µM
- EC50 (human BTK kinase (hBTK)): < 0.1 µM

Compound: CC(=O)N1CCC[C@@H]1Cn1cc(-c2ccc(Oc3cc(F)cc(OCc4cnc(C)nc4)c3)cc2)c2c(N)ncnc21 [Compound 22]
- EC50 [1]: 0.1 to 1 µM
- EC50 (human BTK kinase (hBTK)): < 0.1 µM

Compound: Cc1ncc(COc2cc(F)cc(Oc3ccc(-c4cn([C@H]5C[C@@H](N6CCOCC6)C5)c5ncnc(N)c45)cc3)c2)cn1 [Compound 23]
- EC50 [1]: < 0.1 µM
- Ki [2]: < 100 nM

Compound: Cc1ncc(COc2cc(F)cc(Oc3ccc(-c4cn(C(C)(C)CO)c5ncnc(N)c45)cc3)c2)cn1 [Compound 24]
- EC50 [1]: < 0.1 µM
- EC50 (human BTK kinase (hBTK)): 0.1 to 1 µM

Compound: CC(=O)N1CCC[C@@H](n2cc(-c3ccc(Oc4cc(F)cc(OCc5cnc(C)nc5)c4)cc3)c3c(N)ncnc32)C1 [Compound 25]
- EC50 [1]: < 0.1 µM
- EC50 (human BTK kinase (hBTK)): < 0.1 µM

Compound: Cc1ncc(COc2cc(F)cc(Oc3ccc(-c4cn([C@H]5C[C@@H](O)C5)c5ncnc(N)c45)cc3)c2)cn1 [Compound 26]
- EC50 [1]: < 0.1 µM
- EC50 (human BTK kinase (hBTK)): < 0.1 µM
